Source: US9546201B2, “MUC-1 cytoplasmic domain peptides as inhibitors of cancer” (DANA-FARBER CANCER INSTITUTE, INC., priority 2008, dated 2017)
Where a SMILES comes first, the peptide text is derived from it. [ ]: non-standard residue; d: D form.

Legend:
MCF-7 cells = assay: Cell cycle distribution and necrosis by flow cytometry, MCF-7; type: cell-based, human; details: MCF-7, 5 μM, 3 and 4 d
Description: FIGS. 3A-D. MUC1/CQC peptide induces S phase arrest and necrosis. ZR-75-1 (FIGS. 3A-B) and MCF-7 (FIGS. 3C-D) cells were treated with 5 μM MUC1/CQC or MUC1/AQA for 3 and 4 d. Cells were fixed and analyzed for cell cycle distribution by flow cytometry (FIGS. 3A and 3C). The percentage of cells in G1, S and G2/M phases is included in the panels. Cells were also stained with propidium iodide and analyzed by flow cytometry for necrosis (FIGS. 3B and 3D). The percentage of necrotic cells is included in the panels.
Cells were harvested, washed with PBS, fixed with 80% ethanol, and incubated in PBS containing 40 μg/ml RNAse and 40 μg/ml propidium iodide for 30 min at 37° C. Cell cycle distribution was determined by flow cytometry. Sub-G1 DNA content was assessed by staining ethanol-fixed and citrate buffer-permeabilized cells with propidium iodide and monitoring by flow cytometry as described (Yin et al., 2007). For assessment of necrosis, cells were incubated with 1 μg/ml propidium iodide/PBS for 5 min at room temperature and then monitored by flow cytometry as described (Yin et al., 2007).
To determine whether the MUC1/CQC peptide affects growth, ZR-75-1 cells were treated with 5 μM MUC1/CQC for 72 h and monitored for cell cycle distribution. […] These findings indicate that the MUC1/CQC peptide inhibits growth and induces necrosis of human breast cancer cells.

ZR-75-1/vector cells = assay: Viable cell number by trypan blue exclusion, ZR-75-1/vector; type: cell-based, human; details: 5 μM
Description: FIGS. 4A-E. Selectivity of MUC1/CQC for MUC1 expressing breast cancer cells. (FIG. 4A) ZR-75-1 cells were stably infected with an empty lentivirus (vector) or one expressing a MUC1 siRNA. Lysates for the infected cells were immunoblotted with the indicated antibodies. (FIG. 4B) ZR-75-1/vector cells were left untreated (diamonds), and ZR-75-1/vector (squares) and ZR-75-1/MUC1siRNA (triangles) cells were treated with 5 μM MUC1/CQC peptide for the indicated times. Viable cell number was determined by trypan blue exclusion. (FIG. 4C) 293 cells were left untreated (diamonds), and treated with 5 μM MUC1/CQC (squares) or MUC1/AQA (triangles) for the indicated times. Viable cell number was determined by trypan blue exclusion. (FIG. 4D) MCF-10A cells were left untreated (left panel), and treated with 5 μM MUC1/CQC (middle panel) or MUC1/AQA (right panel). At 3 d, cells were analyzed for cell cycle distribution. […] Viable cell number was determined by trypan blue exclusion.
Human breast cancer ZR-75-1, ZR-75-1/vector, ZR-75-1/MUC1siRNA (Ren et al., 2004) cell lines were grown in RPMI1640 medium supplemented with 10% heat-inactivated fetal bovine serum (HI-FBS), 100 U/ml penicillin, and 100 μg/ml streptomycin (Invitrogen) in a humidified incubator at 37° C. and 5% CO2. […] Viability was determined by trypan blue exclusion. […]

SMILES: CC[C@H](C)[C@H](NC(=O)[C@H](CC(=O)O)NC(=O)[C@H](CC(C)C)NC(=O)[C@H](CCC(N)=O)NC(=O)CNC(=O)[C@H](Cc1ccc(O)cc1)NC(=O)[C@H](CC(N)=O)NC(=O)[C@H](CCCCN)NC(=O)[C@H](CCCNC(=N)N)NC(=O)[C@H](CCCNC(=N)N)NC(=O)[C@H](CS)NC(=O)[C@H](CCC(N)=O)NC(=O)[C@H](CS)NC(=O)[C@@H](CCCNC(=N)N)NC(=O)[C@@H](CCCNC(=N)N)NC(=O)[C@@H](CCCNC(=N)N)NC(=O)[C@@H](CCCNC(=N)N)NC(=O)[C@@H](CCCNC(=N)N)NC(=O)[C@@H](CCCNC(=N)N)NC(=O)[C@@H](CCCNC(=N)N)NC(=O)[C@@H](CCCNC(=N)N)NC(=O)[C@H](N)CCCNC(=N)N)C(=O)N[C@@H](Cc1ccccc1)C(=O)N1CCC[C@H]1C(=O)O [MUC1/CQC] (H-[dR][dR][dR][dR][dR][dR][dR][dR][dR]CQCRRKNYGQLDIFP-OH; N-terminus and C-terminus assumed)
- cell cycle distribution (MCF-7 cells): arrest of growth in S phase
- necrosis (MCF-7 cells): induction of necrosis
- effect on growth (viable cell number) (ZR-75-1/vector cells): growth arrest and death
